For one series, the target named is T1, σ2-receptor (Mus musculus, UniProt Q8VD00).
T1 construct: brains from sigma receptor type I (sigma-1) knockout mice were homogenized; from tissue; host or cells: brain membranes of sigma-1 knockout mice
T1 sequence (Q8VD00 1-176): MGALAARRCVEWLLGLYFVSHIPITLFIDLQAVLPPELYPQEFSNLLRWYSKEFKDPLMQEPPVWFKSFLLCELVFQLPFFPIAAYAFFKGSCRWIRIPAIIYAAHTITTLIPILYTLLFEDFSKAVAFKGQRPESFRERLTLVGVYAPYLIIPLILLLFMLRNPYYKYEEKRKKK
In words: Sigma-2 receptor binding, [3H]-DTG, brains from sigma-1 knockout mice. The settings on record: for inhibition at 1 µM: 2 h, tested compound at 10^-6 M, [3H]-DTG 3 nM, read-out: binding sigma-2 (*) % of radioactively labeled compound replaced by the tested compound; for pKi: [3H]-DTG, sigma-1 knockout mouse brain. As to the method: In brief, brains from sigma receptor type I (sigma-1) knockout mice were homogenized in a volume of 10 mL/g tissue net weight of ice-cold 10 mM Tris-HCl, pH 7.4, containing 320 mM sucrose (Tris-sucrose buffer) with a Potter-Elvehjem homogenizer (10 strokes at 500 r.p.m.) The homogenates were then centrifuged at 1000 g for 10 min at 4° C., and the supernatants were saved. The pellets were resuspended by vortexing in 2 mL/g ice-cold Tris-sucrose buffer and centrifuged again at 1000 g for 10 min. The combined 1000 g supernatants were centrifuged at 31000 g for 15 min at 4° C. The pellets were resuspended by vortexing in 3 mL/g 10 mM Tris-HCl, pH 7.4, and the suspension was kept at 25° C. for 15 min.
The assay tubes contained 10 μL of [^3H]-DTG (final concentration of 3 nM), 400 μL of the tissue suspension (5.3 mL/g in 50 mM Tris-HCl, pH 8.0) to a final assay volume of 0.5 mL. Non-specific binding was defined by addition of a final concentration of 1 μM haloperidol. […] Filters were washed with three times with 5 mL volumes of cold Tris-HCl buffer (10 mM, pH 8.0). Following addition of scintillation cocktail samples were allowed to equilibrate overnight.

Another series concerns the target T2, σ1-receptor (Cavia porcellus, UniProt Q60492).
T2 construct: guinea pig brains were homogenized; from tissue; host or cells: guinea pig brain membranes
In words: Sigma-1 receptor binding, [3H](+)-pentazocine, brain membranes. Further details: species or system guinea pig. The settings on record: for inhibition at 1 µM: 2.5 h, tested compound at 10^-6 M, [3H](+)-pentazocine 0.5 nM, read-out: binding sigma-1 (*) % of radioactively labeled compound replaced by the tested compound; for pKi: [3H](+)-pentazocine, guinea pig brain membranes, read-out: binding sigma-1 Ki.

Our source for the inhibition, melting point and Ki values is patent US8394797B2, “Substituted pyrazole sigma receptor antagonists” (Laboratorios Del Dr. Esteve, S.A., priority 2004, dated 2013).

The structures appear in SMILES notation. pKi: −log10 of the molar value. Where a name gives a salt, the structure may show the parent alone.

T2 sequence (Q60492 whole entry): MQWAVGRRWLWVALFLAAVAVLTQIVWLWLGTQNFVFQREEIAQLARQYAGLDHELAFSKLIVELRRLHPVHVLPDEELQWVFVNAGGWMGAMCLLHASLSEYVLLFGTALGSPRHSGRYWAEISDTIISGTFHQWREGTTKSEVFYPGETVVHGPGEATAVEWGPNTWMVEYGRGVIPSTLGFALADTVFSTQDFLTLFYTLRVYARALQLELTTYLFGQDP

Turning to `O=C(O)C(=O)O.c1ccc(-n2ncc3c2CCCC3CCN2CCCCC2)cc1` (centres unmarked) [Example 14, 4,5,6,7-tetrahydro-1-phenyl-4-(2-(piperidin-1-yl)ethyl)-1H-indazole oxalate], the melting point fell in the range of 185 to 188 °C. On σ2-receptor, the inhibition at 1 µM stood at 89%. Besides, on σ1-receptor, the inhibition at 1 µM came out at 99.8% and the pKi is 8.64.

In turn, `Fc1ccc(-n2ncc3c2CCCC3CCN2CCC(c3ccccc3)CC2)cc1` (centres unmarked) [Example 72, 1-(4-fluorophenyl)-4,5,6,7-tetrahydro-4-(2-(4-phenylpiperidin-1-yl)ethyl)-1H-indazole] had a melting point of 93 to 94.5 °C.

Take `CC1CCN(CCC2CCc3c2cnn3-c2ccccc2)CC1` (centres unmarked) [Example 99, 1,4,5,6-tetrahydro-4-(2-(4-methylpiperidin-1-yl)ethyl)-1-phenylcyclopenta[c]pyrazole oxalate]: on σ1-receptor, the inhibition at 1 µM worked out at 102% and the negative-log Ki (pKi) was 8.82.

`CN(CCC1CCCc2c1cnn2-c1ccccc1)Cc1ccccc1` (centres unmarked) [Example 54, N-benzyl-2-(4,5,6,7-tetrahydro-1-phenyl-1H-indazol-4-yl)-N-methylethanamine]: the inhibition at 1 µM on σ2-receptor was 100%. On σ1-receptor, the inhibition at 1 µM was determined as 105% and the negative-log Ki (pKi) is 8.06.

On to `O=C(O)C(=O)O.c1ccc(N2CCN(CCC3CCCc4c3cnn4-c3ccccc3)CC2)cc1` (centres unmarked), for which the melting point was 177 to 180 °C.

In the case of `Fc1ccc(-n2ncc3c2CCCC3CCN2Cc3ccccc3C2)cc1` (centres unmarked) [Example 70, 1-(4-fluorophenyl)-4,5,6,7-tetrahydro-4-(2-(isoindolin-2-yl)ethyl)-1H-indazole], at σ2-receptor, the inhibition at 1 µM is 108% and the pKi was 7.84. For the same compound, on σ1-receptor, the inhibition at 1 µM turned out to be 100% and the pKi was 7.79.

In the case of `c1ccc(-n2ncc3c2CCC3CCN2CCCC2)cc1` (centres unmarked) [Example 40, 1,4,5,6-tetrahydro-1-phenyl-4-(2-(pyrrolidin-1-yl)ethyl)cyclopenta[c]pyrazole oxalate], the inhibition at 1 µM at σ2-receptor amounted to 97.3%. On σ1-receptor, the inhibition at 1 µM came to 101% and the negative logarithm of the Ki (pKi) is 8.46.

Compound `c1ccc(-n2ncc3c2CCCC3CCN2CCOCC2)cc1` (centres unmarked) (as salt: oxalate) [Example 2, 4,5,6,7-tetrahydro-4-(2-(morpholin-4-yl)ethyl)-1-phenyl-1H-indazole oxalate] gave a melting point of 150 to 151 °C.

On to `CC1CCN(CCC2CCCc3c2cnn3-c2ccccc2)CC1` (centres unmarked) [Example 94, 4,5,6,7-Tetrahydro-4-(2-(4-methylpiperidin-1-yl)ethyl)-1-phenyl-1H-indazole oxalate], for which, on σ1-receptor, the inhibition at 1 µM worked out at 103% and the pKi was 8.72.

As to `C(/CN1CCC(c2ccccc2)CC1)=C1/CCCc2c1cnn2-c1ccccc1` [Example 17, (E)-4,5,6,7-tetrahydro-1-phenyl-4-(2-(4-phenylpiperidin-1-yl)ethylidene)-1H-indazole], on σ2-receptor, the inhibition at 1 µM amounted to 83.8% and the pKi was 6.73. Moreover, on σ1-receptor, the inhibition at 1 µM was 100% and the negative logarithm of the Ki (pKi) is 8.60.

In turn, `C(/CN1CCc2ccccc2C1)=C1/CCCc2c1cnn2-c1ccccc1.O=C(O)C(=O)O` showed a melting point of 217 to 218 °C.

With `c1ccc(-n2ncc3c2CCC3CCN2CCCCC2)cc1` (centres unmarked) [Example 37, 1,4,5,6-tetrahydro-1-phenyl-4-(2-(piperidin-1-yl)ethyl)cyclopenta[c]pyrazole], on σ2-receptor, the inhibition at 1 µM worked out at 79.9%. On σ1-receptor, the inhibition at 1 µM was found to be 102% and the negative logarithm of the Ki (pKi) is 8.96.

`Fc1ccc(-n2ncc3c2CCCC3CCN2CCOCC2)cc1.O=C(O)C(=O)O` (centres unmarked) [Example 66, 1-(4-fluorophenyl)-4,5,6,7-tetrahydro-4-(2-(morpholin-4-yl)ethyl)-1H-indazole oxalate] gave a melting point of 148 to 151 °C. Moreover, at σ1-receptor, the inhibition at 1 µM is 98.1% and the negative-log Ki (pKi) is 8.62.

For `Clc1ccc(-n2ncc3c2CCCC3CCN2CCC(c3ccccc3)CC2)cc1Cl` (centres unmarked) [Example 4, 1-(3,4-dichlorophenyl)-4,5,6,7-tetrahydro-4-(2-(4-phenylpiperidin-1-yl)ethyl)-1H-indazole oxalate], at σ2-receptor, the inhibition at 1 µM amounted to 98% and the negative logarithm of the Ki (pKi) is 6.50. At σ1-receptor, the inhibition at 1 µM is 100% and the negative-log Ki (pKi) was 7.97.

On to `O=C(O)C(=O)O.c1ccc(-n2ncc3c2CCCC3CCN2CCOCC2)cc1` (single isomer, unassigned; (+)) [Example 74, (+)-4,5,6,7-tetrahydro-4-(2-(morpholin-4-yl)ethyl)-1-phenyl-1H-indazole oxalate], for which the melting point was 175 to 176 °C.

For the compound `C(/CN1CCCCC1)=C1/CCCc2c1cnn2-c1ccccc1` [Example 27, (E)-4,5,6,7-tetrahydro-1-phenyl-4-(2-(piperidin-1-yl)ethylidene)-1H-indazole], the inhibition at 1 µM at σ2-receptor stood at 77%. Moreover, on σ1-receptor, the inhibition at 1 µM stood at 99.6% and the pKi was 8.12.

In the case of `CN(CCC1CCc2c1cnn2-c1ccccc1)Cc1ccccc1` (centres unmarked) [Example 52, N-benzyl-2-(1,4,5,6-tetrahydro-1-phenylcyclopenta[c]pyrazol-4-yl)-N-methylethanamine], at σ2-receptor, the inhibition at 1 µM was 104%. For the same compound, on σ1-receptor, the inhibition at 1 µM was 106% and the pKi is 8.41.

With `Clc1ccc(-n2ncc3c2CCCC3CCN2CCC(c3ccccc3)CC2)cc1Cl` (centres unmarked) (as salt: oxalate) [Example 4, 1-(3,4-dichlorophenyl)-4,5,6,7-tetrahydro-4-(2-(4-phenylpiperidin-1-yl)ethyl)-1H-indazole oxalate], the melting point fell in the range of 133 to 134 °C.

Regarding `c1ccc(-n2ncc3c2CCC3CCN2CCSCC2)cc1` (centres unmarked) [Example 97, 1,4,5,6-tetrahydro-1-phenyl-4-[2-(thiomorpholin-4-yl)ethyl]cyclopenta[c]pyrazole oxalate], on σ1-receptor, the inhibition at 1 µM came out at 102% and the negative logarithm of the Ki (pKi) is 9.21.

For the compound `C(/CN1Cc2ccccc2C1)=C1/CCCc2c1cnn2-c1ccccc1`, the melting point was in the range of 130 to 131 °C.

`Cn1ncc2c1CCCC2CCN1CCOCC1.O=C(O)C(=O)O` (centres unmarked) gave a melting point of 137.7 to 139.3 °C.

For the compound `Fc1ccc(-n2ncc3c2CCCC3CCN2Cc3ccccc3C2)cc1.O=C(O)C(=O)O` (centres unmarked), the melting point is 176 to 179 °C.

Consider `C(/CN1CCC(c2ccccc2)C1)=C1/CCCc2c1cnn2-c1ccccc1` (centres unmarked) [Example 24, (E)-4,5,6,7-tetrahydro-1-phenyl-4-(2-(3-phenylpyrrolidin-1-yl)ethylidene)-1H-indazole], for which, on σ2-receptor, the inhibition at 1 µM was 103% and the negative-log Ki (pKi) is 7.31. On σ1-receptor, the inhibition at 1 µM was 100% and the pKi was 8.96.

`C(/CN1CCC(c2ccccc2)C1)=C1/CCCc2c1cnn2-c1ccccc1.O=C(O)C(=O)O` (centres unmarked) yielded a melting point of 178 to 181 °C.

For `O=C(O)C(=O)O.c1ccc(CN2CCN(CCC3CCc4c3cnn4-c3ccccc3)CC2)cc1` (centres unmarked), the melting point was in the range of 215 to 218 °C.

For `CN(CCC1CCCc2c1cnn2-c1ccc(F)cc1)Cc1ccccc1` (centres unmarked) [Example 69, N-benzyl-2-(1-(4-fluorophenyl)-4,5,6,7-tetrahydro-1H-indazol-4-yl)-N-methylethanamine], on σ2-receptor, the inhibition at 1 µM was determined as 99.3% and the pKi was 7.66. Moreover, on σ1-receptor, the inhibition at 1 µM was found to be 103% and the negative logarithm of the Ki (pKi) was 8.59.
